CC(C)(C)c1cc(O)c(C(C)(C)C)cc1O
Conditions | solubility (mole fraction)
in acetone, 283.35 K | 0.0332
in acetone, 285.65 K | 0.0365
in acetone, 288.25 K | 0.0413
in acetone, 290.55 K | 0.0456
in acetone, 293.15 K | 0.0519
in acetone, 295.35 K | 0.057
in acetone, 298.05 K | 0.0636
in acetone, 300.35 K | 0.0691
in acetone, 303.15 K | 0.0775
in acetone, 305.45 K | 0.0836
in acetone, 308.05 K | 0.0929
in acetone, 310.25 K | 0.1
in acetone, 313.05 K | 0.12
in acetone, 316.15 K | 0.123
in acetone, 319.15 K | 0.136
in acetone, 321.15 K | 0.148
in acetone, 323.15 K | 0.161
in ethyl acetate, 278.95 K | 0.144
in ethyl acetate, 281.55 K | 0.145
in ethyl acetate, 284.45 K | 0.146
in ethyl acetate, 287.35 K | 0.148
in ethyl acetate, 290.45 K | 0.148
in ethyl acetate, 293.15 K | 0.15
in ethyl acetate, 296.25 K | 0.151
in ethyl acetate, 298.85 K | 0.153
in ethyl acetate, 301.85 K | 0.155
in ethyl acetate, 304.75 K | 0.157
in ethyl acetate, 307.45 K | 0.158
in ethyl acetate, 310.45 K | 0.161
in ethyl acetate, 312.35 K | 0.163
in ethyl acetate, 316.15 K | 0.166
in ethyl acetate, 319.15 K | 0.169
in ethyl acetate, 322.15 K | 0.17
in ethyl acetate, 325.15 K | 0.173
in ethyl acetate, 328.15 K | 0.177
in ethyl acetate, 331.15 K | 0.18
in ethyl acetate, 335.15 K | 0.183
in ethyl acetate, 337.15 K | 0.186
in ethyl acetate, 340.15 K | 0.188
in ethyl acetate, 343.15 K | 0.194
in ethyl acetate, 346.15 K | 0.195
in methanol, 280.95 K | 0.0647
in methanol, 283.55 K | 0.065
in methanol, 285.95 K | 0.0651
in methanol, 288.15 K | 0.0653
in methanol, 290.65 K | 0.0658
in methanol, 293.15 K | 0.0667
in methanol, 295.55 K | 0.0678
in methanol, 297.95 K | 0.0688
in methanol, 300.65 K | 0.0697
in methanol, 302.65 K | 0.0707
in methanol, 305.15 K | 0.0712
in methanol, 307.25 K | 0.072
in methanol, 309.85 K | 0.0727
in methanol, 312.05 K | 0.0734
in methanol, 316.15 K | 0.0766
in methanol, 319.15 K | 0.078
in methanol, 322.15 K | 0.08
in methanol, 325.15 K | 0.0811
in methanol, 328.15 K | 0.0833
in methanol, 331.15 K | 0.0849
in methanol, 333.15 K | 0.0863
